According to US20090312407A1, “Synthetic Flavonoids and Pharmaceutical Compositions and Therapeutic Methods of Treatment of Cancer and other Pathologies” (priority 2007, published 2009):
Several values for one entry are separate records, joined by “and”; a condition that tells them apart may be missing. Identical values can stand only once. Entries after “also recorded” stand apart in the source; their conditions may differ. Like-named read-outs stand apart in the source and are kept apart here.

Assays:
Format in all cases: cell-based
[1] = system: MCF-7 cells; assay: Cytotoxicity on MCF-7 cells; conditions: for % Inhibition / inhibition at 1 µg/mL / inhibition at 5 µg/mL / inhibition at 10 µg/mL / inhibition at 50 µg/mL: vs 2% DMSO; for inhibition at 1 µg/mL / inhibition at 5 µg/mL / inhibition at 10 µg/mL / inhibition at 50 µg/mL: Homo sapiens; for inhibition at 1 µg/mL: MCF7, 1 μg/ml; for inhibition at 5 µg/mL: MCF7, 5 μg/ml; for inhibition at 10 µg/mL: MCF7, 10 μg/ml; for inhibition at 50 µg/mL: MCF7, 50 μg/ml; for inhibitory activity / growth inhibition compared to AZT: MCF-7 cells, same conditions as AZT; for cytotoxic activities on MCF-7 cells: different drug concentrations
[2] = system: PC-3 cells; assay: Cytotoxicity on PC-3 cells; conditions: for inhibitory activity / growth inhibition compared to AZT: PC-3 cells, same conditions as AZT
Text: (§1) The purified and identified analogs were subjected to in vitro biological testing.

[3] = system: H-9 cells; assay: Cytotoxicity on H-9 cells; conditions: for inhibitory activity / growth inhibition compared to AZT: H-9 cells, same conditions as AZT; for Cells (×10^4) Mean / Cells (×10^4): Table 3, 12-05 to 12-09/2005; for % Inhibition / inhibition at 1 µg/mL / inhibition at 5 µg/mL / inhibition at 10 µg/mL / inhibition at 50 µg/mL: vs 2% DMSO, Table 3; for inhibition at 1 µg/mL / inhibition at 5 µg/mL / inhibition at 10 µg/mL / inhibition at 50 µg/mL: Homo sapiens; for inhibition at 1 µg/mL: H9, 1 μg/ml; for inhibition at 5 µg/mL: H9, 5 μg/ml; for inhibition at 10 µg/mL: H9, 10 μg/ml; for inhibition at 50 µg/mL: H9, 50 μg/ml
Text: as §1
These three congeners were further evaluated in H9 and PC3 cells. AZT was employed as a positive control in all of these experiments.

[4] = 5 μg/ml, single count, Table 17, 12-12 to 12-16/2005
[5] = single count, Table 17, read-out: % Inhibition
[6] = Table 17, read-out: % Inhibition Mean
[7] = single count, read-out: % Inhibition
[8] = single count, Table 6, read-out: % Inhibition
[9] = Table 6, read-out: % Inhibition Mean

With `COc1cc(C=CC(=O)c2cc(Cl)cc(Cl)c2O)cc(OC)c1OC` [CHCl 3M] the “Cells (×10^4)” value [1, 4] was 53.0 ×10^4.
For `Cc1cn([C@H]2C[C@H](N=[N+]=[N-])[C@@H](CO)O2)c(=O)[nH]c1=O` [AZT, reference compound], the “Cells (×10^4) Mean” value ([1]; 1 μg/ml, Table 12, 9-12 to 9-16/2005) was 45.25 ×10^4, the “Cells (×10^4)” value ([1]; 1 μg/ml, single count, Table 12, 9-12 to 9-16/2005) was 46.0 ×10^4 and 45.3 ×10^4 and 44.5 ×10^4 and the “Cells (×10^4) Mean” value ([1]; 5 μg/ml, Table 12, 9-12 to 9-16/2005) was 28.58 ×10^4. The “Cells (×10^4)” value ([1]; 5 μg/ml, single count, Table 12, 9-12 to 9-16/2005) was 27.8 ×10^4 and 28.0 ×10^4, the “Cells (×10^4) Mean” value ([1]; 10 μg/ml, Table 12, 9-12 to 9-16/2005) was 20.17 ×10^4 and the “Cells (×10^4)” value ([1]; 10 μg/ml, single count, Table 12, 9-12 to 9-16/2005) was 17.5 ×10^4 and 21.5 ×10^4. The “Cells (×10^4) Mean” value ([2]; 5 μg/ml, Table 7, 11-11 to 11-17/2005) was 71.33 ×10^4 and the “% Inhibition” value ([2]; 10 μg/ml, single count, vs 2% DMSO, Table 7) was 38.73%.
In the case of `COc1cc(C=CC(=O)c2cc(C)cc([N+](=O)[O-])c2O)cc(OC)c1OC` (stereo in doubt) [CHNM 3M], the “inhibitory activity / growth inhibition compared to AZT” value [3] is reported as “much superior”, the “Cells (×10^4) Mean” value ([1]; 1 μg/ml, Table 17, 12-12 to 12-16/2005) is reported as 44.50 ×10^4 and the “% Inhibition” value ([1]; 1 μg/ml, single count, Table 17) is reported as 11.62%. For the same molecule, the “Cells (×10^4)” value ([1]; 1 μg/ml, single count, Table 17, 12-12 to 12-16/2005) was 44.3 ×10^4 and 45.0 ×10^4, the “Cells (×10^4) Mean” value ([1]; 5 μg/ml, Table 17, 12-12 to 12-16/2005) was 24.75 ×10^4 and the “% Inhibition” value ([1]; 5 μg/ml, single count, Table 17) was 52.86% and 51.88%. The “Cells (×10^4)” value [1, 4] was 25.8 ×10^4 and 24.0 ×10^4 and 24.5 ×10^4, the “Cells (×10^4) Mean” value ([1]; 10 μg/ml, Table 17, 12-12 to 12-16/2005) was 4.92 ×10^4 and the “% Inhibition” value ([1]; 10 μg/ml, single count, Table 17) was 90.67%. The “Cells (×10^4)” value ([1]; 10 μg/ml, single count, Table 17, 12-12 to 12-16/2005) was 5.0 ×10^4 and 4.8 ×10^4, the “Cells (×10^4) Mean” value ([1]; 50 μg/ml, Table 17, 12-12 to 12-16/2005) was 1.75 ×10^4 and the “% Inhibition” value ([1]; 50 μg/ml, single count, Table 17) was 96.07% and 97.05%. The “Cells (×10^4)” value ([1]; 50 μg/ml, single count, Table 17, 12-12 to 12-16/2005) was 1.8 ×10^4 and 2.0 ×10^4 and 1.5 ×10^4, the inhibition at 1 µg/mL [1, 5] was 13.1% and the inhibition at 1 µg/mL [1, 6] was 12.6%. The inhibition at 5 µg/mL [1, 5] was 49.4%, the inhibition at 5 µg/mL [1, 6] was 51.4% and the inhibition at 10 µg/mL [1, 5] was 90.2%. It also gave an inhibition at 10 µg/mL [1, 6] of 90.3%, an inhibition at 50 µg/mL [1, 5] of 96.6% and an inhibition at 50 µg/mL [1, 6] of 96.6%. For the same molecule, the “inhibitory activity / growth inhibition compared to AZT” value [1] was “much superior”, the “cytotoxic activities on MCF-7 cells” value [1] was “good cytotoxic activities” and the “inhibitory activity / growth inhibition compared to AZT” value [2] was “much superior”.
`COc1ccc(C=CC(=O)c2cc(Cl)cc(Cl)c2O)cc1OC` (stereo in doubt) [CHCl 2M] was tested, and the “Cells (×10^4) Mean” value ([3]; 1 μg/ml) was 42.25 ×10^4, the “% Inhibition” value ([3]; 1 μg/ml, single count) was 15.42% and the “Cells (×10^4)” value ([3]; 1 μg/ml, single count) was 42.0 ×10^4 and 42.3 ×10^4 and 42.5 ×10^4. For the same molecule, the “Cells (×10^4) Mean” value ([3]; 5 μg/ml) was 24.00 ×10^4, the “% Inhibition” value ([3]; 5 μg/ml, single count) was 52.74% and 51.74% and the “Cells (×10^4)” value ([3]; 5 μg/ml, single count) was 24.0 ×10^4 and 23.8 ×10^4 and 24.3 ×10^4. For the same molecule, the “Cells (×10^4) Mean” value ([3]; 10 μg/ml) was 12.92 ×10^4, the “% Inhibition” value ([3]; 10 μg/ml, single count) was 77.11% and 71.64% and the “Cells (×10^4)” value ([3]; 10 μg/ml, single count) was 13.0 ×10^4 and 11.5 ×10^4 and 14.3 ×10^4. The “Cells (×10^4) Mean” value ([3]; 50 μg/ml) was 4.50 ×10^4, the “% Inhibition” value ([3]; 50 μg/ml, single count) was 90.05% and the “Cells (×10^4)” value ([3]; 50 μg/ml, single count) was 4.0 ×10^4 and 4.5 ×10^4 and 5.0 ×10^4. The “inhibitory activity / growth inhibition compared to AZT” value ([3]; listed as CHCI2M) was “much superior; also recorded: as good or somewhat better”, the inhibition at 1 µg/mL [3, 7] was 16.4% and the inhibition at 1 µg/mL ([3]; read-out: % Inhibition Mean) was 15.9%. It also gave an inhibition at 5 µg/mL [3, 7] of 52.2%, an inhibition at 5 µg/mL ([3]; read-out: % Inhibition Mean) of 52.2% and an inhibition at 10 µg/mL [3, 7] of 74.1%. The inhibition at 10 µg/mL ([3]; read-out: % Inhibition Mean) was 74.3%, the inhibition at 50 µg/mL [3, 7] was 92% and the inhibition at 50 µg/mL ([3]; read-out: % Inhibition Mean) was 91%. The “Cells (×10^4) Mean” value ([1]; 1 μg/ml, Table 6, 11-14 to 11-18/2005) was 49.42 ×10^4, the “% Inhibition” value ([1]; 1 μg/ml, single count, Table 6) was 16.14% and 13.54% and the “Cells (×10^4)” value ([1]; 1 μg/ml, single count, Table 6, 11-14 to 11-18/2005) was 49.8 ×10^4 and 48.5 ×10^4 and 50.0 ×10^4. The “Cells (×10^4) Mean” value ([1]; 5 μg/ml, Table 6, 11-14 to 11-18/2005) was 32.33 ×10^4, the “% Inhibition” value ([1]; 5 μg/ml, single count, Table 6) was 45.53% and 42.07% and the “Cells (×10^4)” value ([1]; 5 μg/ml, single count, Table 6, 11-14 to 11-18/2005) was 32.0 ×10^4 and 31.5 ×10^4 and 33.5 ×10^4. For the same molecule, the “Cells (×10^4) Mean” value ([1]; 10 μg/ml, Table 6, 11-14 to 11-18/2005) was 10.42 ×10^4, the “% Inhibition” value ([1]; 10 μg/ml, single count, Table 6) was 81.41% and 81.84% and the “Cells (×10^4)” value ([1]; 10 μg/ml, single count, Table 6, 11-14 to 11-18/2005) was 10.0 ×10^4 and 10.8 ×10^4 and 10.5 ×10^4. For the same molecule, the “Cells (×10^4) Mean” value ([1]; 50 μg/ml, Table 6, 11-14 to 11-18/2005) was 0.75 ×10^4, the “% Inhibition” value ([1]; 50 μg/ml, single count, Table 6) was 99.14% and the “Cells (×10^4)” value ([1]; 50 μg/ml, single count, Table 6, 11-14 to 11-18/2005) was 1.0 ×10^4 and 0.5 ×10^4 and 0.8 ×10^4. It also gave an inhibition at 1 µg/mL [1, 8] of 14%, an inhibition at 1 µg/mL [1, 9] of 14.6% and an inhibition at 5 µg/mL [1, 8] of 44.7%. For the same molecule, the inhibition at 5 µg/mL [1, 9] was 44.1%, the inhibition at 10 µg/mL [1, 8] was 82.7% and the inhibition at 10 µg/mL [1, 9] was 82%. The inhibition at 50 µg/mL [1, 8] was 98.3%, the inhibition at 50 µg/mL [1, 9] was 98.7% and the “inhibitory activity / growth inhibition compared to AZT” value ([1]; listed as CHCI2M) was “much superior; also recorded: as good or somewhat better”. The “cytotoxic activities on MCF-7 cells” value [1] was “good cytotoxic activities” and the “inhibitory activity / growth inhibition compared to AZT” value ([2]; listed as CHCI2M) was “much superior; also recorded: as good or somewhat better”.
